Columns and labels:
Assay in all cases: relative viability (nuclei count vs DMSO), 5 days (fraction); higher = more cells survive
[1] = system: PC-3 [JPC-3]
How it was run: (§1)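 Relative viability is defined as nuclei in treated wells over nuclei in vehicle wells. Duplicate plates were run and medians reported. Lung cancer cell lines in 1536-well plates were dosed by pin tool one day after seeding, with one drug or with a fixed anchor-drug dose plus five library-drug doses (not always all listed) in √10 steps, and nuclei were counted after 5 days.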

[2] = system: NCI-H661
How it was run: as §1

[3] = system: NCI-H727
How it was run: as §1

[4] = system: NCI-H1651
How it was run: as §1

[5] = system: 201T
How it was run: as §1

[6] = system: A-427
How it was run: as §1

[7] = system: NCI-H2087
How it was run: as §1

[8] = system: CAL-12T
How it was run: as §1

[9] = system: NCI-H1915
How it was run: as §1

[10] = system: ABC-1
How it was run: as §1

[11] = system: LC-2-ad
How it was run: as §1

O=c1cc(-c2cccc3c2Sc2ccccc2S3)oc(N2CCOCC2)c1 + Cc1nc(NC(=O)N2CCC[C@H]2C(N)=O)sc1-c1ccnc(C(C)(C)C(F)(F)F)c1 [Alpelisib] (partner 2 µM)
relative viability ([1]; first compound 0.8 µM): 1.07 | relative viability ([1]; first compound 2.53 µM): 0.958 | relative viability ([1]; first compound 8 µM): 1.03 | relative viability ([2]; first compound 0.08 µM): 0.541 | relative viability ([2]; first compound 0.253 µM): 0.753 | relative viability ([2]; first compound 0.8 µM): 0.594 | relative viability ([2]; first compound 2.53 µM): 0.512 | relative viability ([2]; first compound 8 µM): 0.98 | relative viability ([3]; first compound 0.253 µM): 0.553 | relative viability ([3]; first compound 2.53 µM): 0.47 | relative viability ([3]; first compound 8 µM): 0.761 | relative viability ([4]; first compound 0.08 µM): 1.02 | relative viability ([4]; first compound 0.253 µM): 1.02 | relative viability ([4]; first compound 0.8 µM): 1.08 | relative viability ([4]; first compound 2.53 µM): 0.963 | relative viability ([4]; first compound 8 µM): 1.21 | relative viability ([5]; first compound 0.08 µM): 0.98 | relative viability ([5]; first compound 0.253 µM): 1.04 | relative viability ([5]; first compound 0.8 µM): 1.02 | relative viability ([5]; first compound 2.53 µM): 0.953 | relative viability ([5]; first compound 8 µM): 0.913 | relative viability ([6]; first compound 0.08 µM): 1.04 | relative viability ([6]; first compound 0.253 µM): 1.04 | relative viability ([6]; first compound 0.8 µM): 1.14 | relative viability ([6]; first compound 2.53 µM): 0.987 | relative viability ([6]; first compound 8 µM): 1.05 | relative viability ([7]; first compound 0.08 µM): 1.22 | relative viability ([7]; first compound 0.253 µM): 1.19 | relative viability ([7]; first compound 0.8 µM): 1.09 | relative viability ([7]; first compound 2.53 µM): 1.12 | relative viability ([7]; first compound 8 µM): 1.03 | relative viability ([8]; first compound 0.08 µM): 1.17 | relative viability ([8]; first compound 0.253 µM): 1.28 | relative viability ([8]; first compound 0.8 µM): 1.56 | relative viability ([8]; first compound 2.53 µM): 1.1 | relative viability ([8]; first compound 8 µM): 0.724 | relative viability ([9]; first compound 0.08 µM): 1.15 | relative viability ([9]; first compound 0.253 µM): 1.12 | relative viability ([9]; first compound 0.8 µM): 1.07 | relative viability ([9]; first compound 2.53 µM): 0.994 | relative viability ([9]; first compound 8 µM): 1.11 | relative viability ([10]; first compound 0.08 µM): 1.17 | relative viability ([10]; first compound 0.253 µM): 1.14 | relative viability ([10]; first compound 0.8 µM): 1.16 | relative viability ([10]; first compound 2.53 µM): 0.901 | relative viability ([10]; first compound 8 µM): 0.953 | relative viability ([11]; first compound 0.08 µM): 0.884 | relative viability ([11]; first compound 0.253 µM): 0.908 | relative viability ([11]; first compound 0.8 µM): 0.844 | relative viability ([11]; first compound 2.53 µM): 0.806 | relative viability ([11]; first compound 8 µM): 0.75

Source: the supplement of paper PMC10307832
